Here are results for seven molecules from patent US20120070411A1, “SUBSTITUTED NUCLEOTIDE ANALOGS” (Alios BioPharma, Inc., priority 2010, published 2012).

This experiment deals with HCV genotype 1b HCV replicon harbored in Huh7 cells. Kind of experiment: Combination testing with compound A10 in HCV replicon (CalcuSyn CI and MacSynergy II synergy volume). Format: cell-based. To be noted: combination of compound A10 with the listed compound; MacSynergy II, Bliss independence; 25-100 synergistic, >100 strongly synergistic. As to the method: Two or more test compounds were tested in combination with each other using an HCV genotype 1b HCV replicon harbored in Huh7 cells with a stable luciferase (LUC) reporter. Cells were cultured under standard conditions in Dulbecco's modified Eagle's medium (DMEM; Mediatech Inc, Herndon, Va.) containing 10% heat-inactivated fetal bovine serum (FBS; Mediatech Inc, Herndon, Va.) 2 mM L-glutamine, and nonessential amino acids (JRH Biosciences). HCV replicon cells were plated in a 96-well plate at a density of 10^4 cells per well in DMEM with 10% FBS. […] The cells were incubated with no compound as a control, with the test compounds, or the combination of compounds for 72 h. The direct effects of the combination of the test compounds were examined using a luciferase (LUC) based reporter as determined by the Bright-Glo Luciferase Assay (Promega, Madison, Wis.). Dose-response curves were determined for individual compounds and fixed ratio combinations of two or more test compounds.
The effects of test compound combinations were evaluated by two separate methods. In the Loewe additivity model, the experimental replicon data was analyzed by using CalcuSyn (Biosoft, Ferguson, Mo.), a computer program based on the method of Chou and Talalay. The program uses the experimental data to calculate a combination index (CI) value for each experimental combination tested. A CI value of <1 indicates a synergistic effect, a CI value of 1 indicates an additive effect, and a CI value of >1 indicates an antagonistic effect.
The second method utilized for evaluating combination effects used a program called MacSynergy II. MacSynergy II software was kindly provided by Dr. M. Prichard (University of Michigan). The Prichard Model allows for a three-dimensional examination of drug interactions and a calculation of the synergy volume (units: μM^2%) generated from running the replicon assay using a checkerboard combination of two or more inhibitors. The volumes of synergy (positive volumes) or antagonism (negative volumes) represent the relative quantity of synergism or antagonism per change in the concentrations of the two drugs. Synergy and antagonism volumes are defined based on the Bliss independence model. In this model, synergy volumes of less than −25 indicate antagonistic interactions, volumes in the −25-25 range indicate additive behavior, volumes in the 25-100 range indicate synergistic behavior and volumes>100 indicate strong synergistic behavior.

Where a chain is given by its changes, count along the chain named.

As for `NC(=O)c1ncn([C@@H]2O[C@H](CO)[C@@H](O)[C@H]2O)n1` [Ribavirin, ribavirin], the “Synergy Volume” value is listed as 0 μM^2%.

As to `COc1ccc2c(O[C@@H]3C[C@H]4C(=O)N[C@]5(C(=O)NS(=O)(=O)C6CC6)C[C@H]5/C=C\CCCCN(C)C(=O)[C@@H]4C3)cc(-c3nc(C(C)C)cs3)nc2c1C` [TMC-435], the “Synergy Volume” value was 104 μM^2%.

Regarding `CC(C)(C)C#Cc1cc(N(C(=O)[C@H]2CC[C@H](C)CC2)[C@H]2CC[C@H](O)CC2)c(C(=O)O)s1` [VX-222], the “Synergy Volume” value is on record as 52 μM^2%.

Turning to `CCC[C@H](NC(=O)[C@@H]1[C@H]2CCC[C@H]2CN1C(=O)[C@@H](NC(=O)[C@@H](NC(=O)c1cnccn1)C1CCCCC1)C(C)(C)C)C(=O)C(=O)NC1CC1` [VX-950, Telaprevir], the “Synergy Volume” value was 34 μM^2%.

B1: IFN-Lambda 1 (protein, UniProt Q8IU54 20-200, looked up)
Interferon lambda-1: GPVPTSKPTTTGKGCHIGRFKSLSPQELASFKKARDALEESLKLKNWSCSSPVFPGNWDLRLLQVRERPVALEAELALTLKVLEAAAGPALEDVLDQPLHTLHHILSQLQACIQPQPTAGPRPRGRLHHWLHRLQEAPKKESAGCLEASVTFNLFRLLTRDLKYVADGNLCLRTSTHPEST
With B1, the “Synergy Volume” value was 43 μM^2%.

B2: IFN-Lambda 2 (protein, UniProt Q8IZJ0 26-200, looked up)
Interferon lambda-2: VPVARLHGALPDARGCHIAQFKSLSPQELQAFKRAKDALEESLLLKDCRCHSRLFPRTWDLRQLQVRERPMALEAELALTLKVLEATADTDPALVDVLDQPLHTLHHILSQFRACIQPQPTAGPRTRGRLHHWLYRLQEAPKKESPGCLEASVTFNLFRLLTRDLNCVASGDLCV
Regarding B2, the “Synergy Volume” value is given as 31 μM^2%.

B3: IFN-Lambda 3 (protein, UniProt Q8IZI9 22-196, looked up)
Interferon lambda-3: B2 Interferon lambda-2 with H7R, R49K, H51R, M71V, V95G, F112L, Y135H
For B3, the “Synergy Volume” value is on record as 33 μM^2%.
